Among the data in ChEMBL document CHEMBL3621155, “The status of the lysophosphatidic acid receptor type 1 (LPA1R)” (Medchemcomm, 2015) are EC50 and IC50 values, retold here.

Molecules are shown by their SMILES. pEC50, pIC50: −log10 of the molar value.

The target in test [1] is T1, Lysophosphatidic acid receptor 3 (Homo sapiens, UniProt Q9UBY5).
T1 sequence (Q9UBY5 whole entry): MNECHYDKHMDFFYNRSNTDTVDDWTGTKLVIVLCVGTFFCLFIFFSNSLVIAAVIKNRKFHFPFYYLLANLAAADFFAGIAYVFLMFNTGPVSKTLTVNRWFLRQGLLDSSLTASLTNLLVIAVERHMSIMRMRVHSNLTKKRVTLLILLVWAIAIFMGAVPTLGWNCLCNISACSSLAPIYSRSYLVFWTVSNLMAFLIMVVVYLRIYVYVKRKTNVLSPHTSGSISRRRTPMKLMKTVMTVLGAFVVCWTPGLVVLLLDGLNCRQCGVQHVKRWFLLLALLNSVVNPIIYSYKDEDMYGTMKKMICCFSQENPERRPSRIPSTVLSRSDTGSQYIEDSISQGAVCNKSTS
Nature of the test: Agonist activity at human LPA3 receptor transfected in HEK293T cells after 30 mins by GTP[gamma-35S] binding assay. It counts as cell-based, HEK-293T.

In test [2] the target is Lysophosphatidic acid receptor 5 (Homo sapiens, UniProt Q9H1C0). Nature of the test: Antagonist activity at human LPA5 receptor expressed in rat B103 cells assessed as inhibition of LPA-induced calcium mobilization preincubated for 30 mins followed by LPA induction by FLIPR Calcium 4 dye-based fluorometric analysis. The test is classed as functional, cell-based.
Test [3] concerns the target T1, Lysophosphatidic acid receptor 3. In words: Antagonist activity at human LPA3 receptor expressed in CHO cells assessed as inhibition of LPA-induced calcium mobilization preincubated for 30 mins followed by LPA induction by FLIPR Calcium 4 dye-based fluorometric analysis. It counts as functional, cell-based.
Test [4] deals with T2, Lysophosphatidic acid receptor 2 (Homo sapiens, UniProt Q9HBW0). In words: Antagonist activity at human LPA2 receptor expressed in rat B103 cells assessed as inhibition of LPA-induced calcium mobilization preincubated for 30 mins followed by LPA induction by FLIPR Calcium 4 dye-based fluorometric analysis. The test is classed as functional, cell-based.
Test [5] deals with T3, Lysophosphatidic acid receptor 4 (Homo sapiens, UniProt Q99677). Nature of the test: Antagonist activity at human LPA4 receptor expressed in rat B103 cells assessed as inhibition of LPA-induced calcium mobilization preincubated for 30 mins followed by LPA induction by FLIPR Calcium 4 dye-based fluorometric analysis. The test is classed as functional, cell-based.
For test [6], the target named is T4, Lysophosphatidic acid receptor 1 (Homo sapiens, UniProt Q92633). In words: Antagonist activity at human LPA1 receptor expressed in CHO cells assessed as inhibition of LPA-induced calcium mobilization preincubated for 30 mins followed by LPA induction by FLIPR Calcium 4 dye-based fluorometric analysis. The test is classed as functional, cell-based.
The target of test [7] is T1, Lysophosphatidic acid receptor 3. In words: Antagonist activity at human LPA3 receptor transfected in HEK293T cells. The test is classed as cell-based, HEK-293T.
The target of test [8] is Lysophosphatidic acid receptor 1 (Mus musculus, UniProt P61793). Nature of the test: Antagonist activity at mouse LPA1 receptor transfected in HEK293T cells. It counts as cell-based, HEK-293T.
Test [9] has as its target T4, Lysophosphatidic acid receptor 1. In words: Agonist activity at human LPA1 receptor transfected in HEK293T cells after 30 mins by GTP[gamma-35S] binding assay. It counts as cell-based, HEK-293T.
For test [10], the target named is T2, Lysophosphatidic acid receptor 2. In words: Agonist activity at human LPA2 receptor transfected in HEK293T cells after 30 mins by GTP[gamma-35S] binding assay. It counts as cell-based, HEK-293T.
For test [11], the target named is T4, Lysophosphatidic acid receptor 1. Nature of the test: Agonist activity at human LPA1 receptor transfected in RH7777 cells assessed as mobilization of Ca2+ by fluorometric analysis. It counts as functional, cell-based.
Test [12] concerns the target T1, Lysophosphatidic acid receptor 3. Nature of the test: Agonist activity at human LPA3 receptor transfected in RH7777 cells assessed as mobilization of Ca2+ by fluorometric analysis. The test is classed as functional, cell-based.
In test [13] the target is T2, Lysophosphatidic acid receptor 2. Nature of the test: Antagonist activity at human LPA2 receptor expressed in RH7777 cells assessed as inhibition of LPA-induced calcium mobilization by Fura-2 AM probe-based fluorometric analysis. The test is classed as functional, cell-based.
Test [14] has as its target T1, Lysophosphatidic acid receptor 3. Nature of the test: Antagonist activity at human LPA3 receptor expressed in RH7777 cells assessed as inhibition of LPA-induced calcium mobilization by Fura-2 AM probe-based fluorometric analysis. It counts as functional, cell-based.
Test [15] has as its target T3, Lysophosphatidic acid receptor 4. Nature of the test: Antagonist activity at human LPA4 receptor expressed in CHO cells assessed as inhibition of LPA-induced calcium mobilization by Fura-2 AM probe-based fluorometric analysis. The test is classed as functional, cell-based.
Test [16] concerns the target T4, Lysophosphatidic acid receptor 1. In words: Antagonist activity at human LPA1 receptor expressed in RH7777 cells assessed as inhibition of LPA-induced calcium mobilization by Fura-2 AM probe-based fluorometric analysis. The test is classed as functional, cell-based.
The target in test [17] is T2, Lysophosphatidic acid receptor 2. In words: Antagonist activity at human LPA2 receptor expressed in CHO cells assessed as inhibition of LPA-induced calcium mobilization preincubated for 30 mins followed by LPA induction by FLIPR Calcium 4 dye-based fluorometric analysis. The test is classed as functional, cell-based.
For test [18], the target named is T4, Lysophosphatidic acid receptor 1. Nature of the test: Antagonist activity at human LPA1 receptor expressed in CHO cells assessed as inhibition of LPA-induced calcium mobilization preincubated with protein followed by LPA induction measured for 2 mins by Fluo-4 dye-based FLIPR assay. It counts as functional, cell-based.
Test [19] addresses Lysophosphatidic acid receptor 1/lysophosphatidic acid receptor 3 (Rattus norvegicus, UniProt Q8K5E0+P61794). Nature of the test: Antagonist activity at LPA1/LPA3 receptor (unknown origin). It counts as protein assay, Homo sapiens.
Test [20] is described as follows: Displacement of [32P]diazirine-LPA from LPA receptor in mouse N1E-115 cells preincubated for 1 hr in dark followed by UV irradiation for 5 mins by scintillation counting analysis. The test is classed as cell-based.

T2 sequence (Q9HBW0 whole entry): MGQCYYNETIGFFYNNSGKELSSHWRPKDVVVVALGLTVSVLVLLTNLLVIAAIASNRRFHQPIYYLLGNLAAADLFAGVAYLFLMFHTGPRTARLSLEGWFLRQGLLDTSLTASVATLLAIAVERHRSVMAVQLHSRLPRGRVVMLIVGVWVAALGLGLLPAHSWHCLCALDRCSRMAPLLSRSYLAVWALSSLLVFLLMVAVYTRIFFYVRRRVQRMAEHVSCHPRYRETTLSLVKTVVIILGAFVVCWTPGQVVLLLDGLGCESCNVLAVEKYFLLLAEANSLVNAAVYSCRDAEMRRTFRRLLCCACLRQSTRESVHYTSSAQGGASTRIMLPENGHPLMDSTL
T4 sequence (Q92633 whole entry): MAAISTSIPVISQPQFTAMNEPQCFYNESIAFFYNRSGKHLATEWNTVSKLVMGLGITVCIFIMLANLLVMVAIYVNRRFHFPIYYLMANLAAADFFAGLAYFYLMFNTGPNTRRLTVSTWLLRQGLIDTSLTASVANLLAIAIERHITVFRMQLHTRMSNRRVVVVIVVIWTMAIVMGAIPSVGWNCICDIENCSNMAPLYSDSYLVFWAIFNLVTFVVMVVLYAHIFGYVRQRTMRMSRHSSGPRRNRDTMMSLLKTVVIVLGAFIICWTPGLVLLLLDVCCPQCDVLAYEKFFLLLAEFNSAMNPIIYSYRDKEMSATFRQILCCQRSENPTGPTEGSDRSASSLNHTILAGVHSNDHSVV
T3 sequence (Q99677 whole entry): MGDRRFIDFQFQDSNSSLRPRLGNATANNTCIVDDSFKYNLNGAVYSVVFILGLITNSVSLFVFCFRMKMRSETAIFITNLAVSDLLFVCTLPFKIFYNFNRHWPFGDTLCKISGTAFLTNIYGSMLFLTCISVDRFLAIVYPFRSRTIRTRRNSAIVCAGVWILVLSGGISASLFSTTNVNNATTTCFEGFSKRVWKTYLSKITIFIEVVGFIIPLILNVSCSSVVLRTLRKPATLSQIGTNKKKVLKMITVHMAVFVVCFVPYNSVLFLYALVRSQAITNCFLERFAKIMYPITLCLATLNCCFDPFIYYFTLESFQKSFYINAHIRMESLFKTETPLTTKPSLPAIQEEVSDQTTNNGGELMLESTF
Sequence of Lysophosphatidic acid receptor 5 (Q9H1C0 whole entry): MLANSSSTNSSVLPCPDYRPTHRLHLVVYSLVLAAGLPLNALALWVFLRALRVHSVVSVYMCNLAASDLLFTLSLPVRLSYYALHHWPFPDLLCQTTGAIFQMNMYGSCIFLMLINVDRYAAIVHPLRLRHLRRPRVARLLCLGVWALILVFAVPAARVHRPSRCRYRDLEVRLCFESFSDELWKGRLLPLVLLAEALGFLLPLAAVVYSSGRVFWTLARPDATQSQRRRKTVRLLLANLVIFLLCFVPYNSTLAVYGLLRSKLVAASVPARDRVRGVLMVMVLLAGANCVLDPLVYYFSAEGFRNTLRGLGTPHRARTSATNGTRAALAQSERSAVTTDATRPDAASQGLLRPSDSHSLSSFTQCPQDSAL
Sequence of Lysophosphatidic acid receptor 1 (Mus musculus, UniProt P61793) (P61793 whole entry): as the sequence (Q92633 whole entry) above, with I4A, I8S, P22Q, H40Y, I61V, E193D, N194H, I269V, S331N, T335N counted along it

In turn, `CCCCCCCC/C=C\CCCCCCCC(=O)OC[C@@H](COP(O)(O)=S)OC` gave a pEC50 in test [1] of 6.56.
As for `Cc1noc(-c2ccc(-c3ccc(CC(=O)O)cc3)cc2)c1NC(=O)O[C@H](C)c1ccccc1`, the pIC50 in [2] is under 5.10; in [3], under 5.10; in test [4], under 5.10; in test [5], under 5.10; in test [6], 7.60.
Turning to `CCCCCCCC/C=C\CCCCCCCC(=O)N[C@H](COP(=O)(O)O)Cc1ccc(OCc2ccccc2)cc1`, the negative logarithm of the IC50 (pIC50) was 5.19 in [7] and 5.28 in test [8].
With `CCCCCCCC/C=C\CCCCCCCC(=O)NCCOP(O)(O)=S`, the negative-log EC50 (pEC50) in test [9] is 7.40; in test [10], 6.97.
`CCCCCCCC/C=C\CCCCCCCC(=O)NCCSP(=O)(O)O` showed a negative logarithm of the EC50 (pEC50) in test [9] of 6.50.
Take `CCCCCCCC/C=C\CCCCCCCCOC[C@H](COP(O)(O)=S)OC`: the negative-log EC50 (pEC50) is 6.10 in test [11] and 7.21 in test [12].
For the compound `CCCCCCCC/C=C\CCCCCCCCOC[C@@H](COP(O)(O)=S)OC`, the pEC50 in test [11] is 6.24; in test [12], 7.10.
Take `CCCCCC/C=C\CCCCCCCC(=O)OC[C@@H](O)CC(Br)P(=O)(O)O` (some centres not stated): the pIC50 in test [13] is 5.85; in [14], 5.94; in test [15], 6.58; in [16] it was 5.82.
For `Cc1noc(-c2ccc(-c3ccc(CC(=O)O)cc3)cc2)c1NC(=O)O[C@H](C)c1ccccc1Cl`, the negative logarithm of the IC50 (pIC50) in test [17] is 5.77; in [3], 5.80; in [6], 7.77.
As to `Cc1nsc(-c2ccc(-c3ccc(CC(=O)O)cc3)cc2)c1NC(=O)O[C@H](C)c1ccccc1Cl`, the negative logarithm of the IC50 (pIC50) was under 6.30 in [3] and over 7.30 in test [6].
Take `COc1ccc([C@@H](O)C(=O)N(CCCc2ccccc2)Cc2nc(C(=O)NS(C)(=O)=O)c(C)s2)c(F)c1`: the negative-log IC50 (pIC50) in test [18] was 8.18.
In test [19], `COc1ccc(C(=O)NC2(C(=O)O)Cc3ccccc3C2)cc1OCCc1cccc(C)c1` [FIPAXALPARANT] showed a half-maximal inhibitory concentration (IC50) of under 100 nM.
Turning to `CCCCCCCC/C=C\CCCCCCCC(=O)OC[C@@H](O)COP(=O)(O)O` [LYSOPHOSPHATIDIC ACID], the negative logarithm of the IC50 (pIC50) in test [20] is 8.00.
